Laboratory results published in paper PMC10254530, “Design and Synthesis of Brefeldin A-Isothiocyanate Derivatives with Selectivity and Their Potential for Cervical Cancer Therapy” (Molecules, 2023).
Counter-ions that a name gives are not always drawn. Like-named read-outs stand apart in the source and are kept apart here.

Assays:
HepG2 cells = experiment: CCK-8 antiproliferative assay, HepG2; format: cell-based; conditions: Homo sapiens, read-out: IC50 HepG2
Protocol: (§1) All cells were cultured in Dulbecco’s Modified Eagle’s Medium (DMEM) (Burlington, MA, USA) or Roswell Park Memorial Institute (RPMI)-1640 medium containing 10% fetal bovine serum and 1% penicillin/streptomycin in an incubator at 37 °C and 5% CO2. […] Cell suspension with a concentration of 8 × 10^4 cells/mL was prepared after cell counting. 100 μL cell suspension was added to each well of the 96-well plate and then placed in an incubator overnight. Most of the derivatives were configured into 80 mM, 20 mM or 4 mM stock solution in DMSO, and the stock solution concentration of BFA and paclitaxel was 0.4 mM. […] The medium in each well was discarded, and 100 μL of gradient diluted derivative solution was added (the control group was added with serum-free medium).

MDA-MB-231 cells = experiment: CCK-8 antiproliferative assay, MDA-MB-231; format: cell-based; conditions: Homo sapiens, read-out: IC50 MDA-MB-231
Protocol: as §1

A375 cells = experiment: CCK-8 antiproliferative assay, A375; format: cell-based; conditions: Homo sapiens, read-out: IC50 A375
Protocol: as §1

A549 cells = experiment: CCK-8 antiproliferative assay, A549; format: cell-based; conditions: Homo sapiens, read-out: IC50 A549
Protocol: as §1

HeLa cells = experiment: CCK-8 antiproliferative assay, HeLa; format: cell-based, human; conditions: for IC50: Homo sapiens, HeLa, read-out: IC50 HeLa; for SIHeLa, selectivity index between L-02 and HeLa: SI = IC50(L-02)/IC50(HeLa)
Protocol: as §1

L-02 cells = experiment: CCK-8 cytotoxicity assay, normal liver L-02; format: cell-based; conditions: Homo sapiens, read-out: IC50 L-02
Protocol: as §1

[1] = HepG2, CCK-8, 48 h, mean ± SD of three experiments
[2] = MDA-MB-231, CCK-8, 48 h, mean ± SD of three experiments
[3] = A-375, CCK-8, 48 h, mean ± SD of three experiments
[4] = A549, CCK-8, 48 h, mean ± SD of three experiments
[5] = CCK-8, 48 h, mean ± SD of three experiments
[6] = L02, CCK-8, 48 h, normal liver cells, mean ± SD of three experiments

| Compound | IC50 (HepG2 cells; [1]) | IC50 (MDA-MB-231 cells; [2]) | IC50 (A375 cells; [3]) | IC50 (A549 cells; [4]) | IC50 (HeLa cells; [5]) | IC50 (L-02 cells; [6]) | SIHeLa, selectivity index between L-02 and HeLa (HeLa cells) | IC50 (HepG2 cells; HepG2, 48 h) | IC50 (MDA-MB-231 cells; MDA-MB-231, 48 h) | IC50 (A375 cells; A-375, 48 h) | IC50 (A549 cells; A549, 48 h) | IC50 (HeLa cells; 48 h) | IC50 (L-02 cells; L02, 48 h) |
| --- | --- | --- | --- | --- | --- | --- | --- | --- | --- | --- | --- | --- | --- |
| C[C@H]1CCC/C=C/[C@@H]2C[C@H](OC(=O)c3ccc(N=C=S)cc3)C[C@H]2[C@H](OC(=O)c2ccc(N=C=S)cc2)/C=C/C(=O)O1 [Compound 5, (1R,2E,6S,10E,11aS,13S,14aR)-6-methyl-4-oxo-1,6,7,8,9,11a,12,13,14,14a-decahydro-4H-cyclopenta[f][1]oxacyclotridecine-1,13-diyl bis(4-isothiocyanatobenzoate)] | > 40 µM | > 40 µM | > 40 µM | 20.9 ± 1.42 µM | > 40 µM | > 80 µM |  |  |  |  |  |  |  |
| C[C@H]1CCC/C=C/[C@@H]2C[C@H](O)C[C@H]2[C@H](OC(=O)CCC(=O)OCCOC(=O)c2ccc(N=C=S)cc2)/C=C/C(=O)O1 [Compound 9a, (1R,2E,6S,10E,11aS,13S,14aR)-13-Hydroxy-6-methyl-4-oxo-1,6,7,8,9,11a,12,13,14,14a-decahydro-4H-cyclopenta[f][1]oxacyclotridecin-1-yl (2-((4-isothiocyanatobenzoyl)oxy)ethyl) succinate] | 5.93 ± 0.03 µM | 8.04 ± 0.01 µM | 2.07 ± 0.09 µM | 8.29 ± 0.1 µM | 2.69 ± 0.3 µM | 15.5 ± 1.22 µM | 5.75 |  |  |  |  |  |  |
| C[C@H]1CCC/C=C/[C@@H]2C[C@H](OC(=O)CCC(=O)OCCCCOC(=O)c3ccc(N=C=S)cc3)C[C@H]2[C@H](OC(=O)CCC(=O)OCCCCOC(=O)c2ccc(N=C=S)cc2)/C=C/C(=O)O1 [Compound 8b, Bis(4-((4-isothiocyanatobenzoyl)oxy)butyl) O,O’-((1R,2E,6S,10E,11aS,13S,14aR)-6-methyl-4-oxo-1,6,7,8,9,11a,12,13,14,14a-decahydro-4H-cyclopenta[f][1]oxacyclotridecine-1,13-diyl) disuccinate] | > 40 µM | > 40 µM | > 40 µM | > 40 µM | 16.4 ± 1.35 µM | > 80 µM | >4.88 |  |  |  |  |  |  |
| C[C@H]1CCC/C=C/[C@@H]2C[C@H](O)C[C@H]2[C@H](OC(=O)/C=C\C(=O)OCC#CCOC(=O)c2ccc(N=C=S)cc2)/C=C/C(=O)O1 [Compound 9i, (1R,2E,6S,10E,11aS,13S,14aR)-13-Hydroxy-6-methyl-4-oxo-1,6,7,8,9,11a,12,13,14,14a-decahydro-4H-cyclopenta[f][1]oxacyclotridecin-1-yl (4-((4-isothiocyanatobenzoyl)oxy)but-2-yn-1-yl) maleate] | 11.9 ± 0.32 µM | 10 ± 0.26 µM | 9.1 ± 0.46 µM | 10.3 ± 0.35 µM | 6.59 ± 0.75 µM | 28.14 ± 0.14 µM | 4.27 |  |  |  |  |  |  |
| C[C@H]1CCC/C=C/[C@@H]2C[C@H](O)C[C@H]2[C@H](OC(=O)/C=C\C(=O)OCCCCOC(=O)c2ccc(N=C=S)cc2)/C=C/C(=O)O1 [Compound 9h, (1R,2E,6S,10E,11aS,13S,14aR)-13-Hydroxy-6-methyl-4-oxo-1,6,7,8,9,11a,12,13,14,14a-decahydro-4H-cyclopenta[f][1]oxacyclotridecin-1-yl (4-((4-isothiocyanatobenzoyl)oxy)butyl) maleate] | 13.27 ± 0.1 µM | 5.71 ± 0.2 µM | 11.2 ± 0.29 µM | 8.54 ± 0.26 µM | 9.68 ± 0.24 µM | 27.8 ± 1.39 µM | 2.87 |  |  |  |  |  |  |
| C[C@H]1CCC/C=C/[C@@H]2C[C@H](OC(=O)/C=C\C(=O)OCCCCCCOC(=O)c3ccc(N=C=S)cc3)C[C@H]2[C@H](OC(=O)/C=C\C(=O)OCCCCCCOC(=O)c2ccc(N=C=S)cc2)/C=C/C(=O)O1 [Compound 8k, Bis(6-((4-isothiocyanatobenzoyl)oxy)hexyl) O,O’-((1R,2E,6S,10E,11aS,13S,14aR)-6-methyl-4-oxo-1,6,7,8,9,11a,12,13,14,14a-decahydro-4H-cyclopenta[f][1]oxacyclotridecine-1,13-diyl) dimaleate] | > 40 µM | > 40 µM | > 40 µM | > 40 µM | > 40 µM | > 80 µM |  |  |  |  |  |  |  |
| C[C@H]1CCC/C=C/[C@@H]2C[C@H](O)C[C@H]2[C@H](OC(=O)/C=C\C(=O)OCCCCCCOC(=O)c2ccc(N=C=S)cc2)/C=C/C(=O)O1 [Compound 9k, (1R,2E,6S,10E,11aS,13S,14aR)-13-Hydroxy-6-methyl-4-oxo-1,6,7,8,9,11a,12,13,14,14a-decahydro-4H-cyclopenta[f][1]oxacyclotridecin-1-yl (6-((4-isothiocyanatobenzoyl)oxy)hexyl) maleate] | 3.28 ± 0.27 µM | 2.61 ± 0.08 µM | 7.27 ± 0.57 µM | 8.34 ± 0.24 µM | 2.39 ± 0.1 µM | 23.9 ± 1.23 µM |  |  |  |  |  |  |  |
| C[C@H]1CCC/C=C/[C@@H]2C[C@H](O)C[C@H]2[C@H](OC(=O)CCC(=O)OCCCCOC(=O)c2ccc(N=C=S)cc2)/C=C/C(=O)O1 [Compound 9b, (1R,2E,6S,10E,11aS,13S,14aR)-13-Hydroxy-6-methyl-4-oxo-1,6,7,8,9,11a,12,13,14,14a-decahydro-4H-cyclopenta[f][1]oxacyclotridecin-1-yl (4-((4-isothiocyanatobenzoyl)oxy)butyl) succinate] | 6.54 ± 0.18 µM | 2.23 ± 0.04 µM | 2.79 ± 0.25 µM | 2.84 ± 0.02 µM | 2.28 ± 0.04 µM | 10.6 ± 0.6 µM | 4.63 |  |  |  |  |  |  |
| C[C@H]1CCC/C=C/[C@@H]2C[C@H](O)C[C@H]2[C@H](OC(=O)CCC(=O)Oc2ccc(OC(=O)c3ccc(N=C=S)cc3)cc2)/C=C/C(=O)O1 [Compound 9f, (1R,2E,6S,10E,11aS,13S,14aR)-13-Hydroxy-6-methyl-4-oxo-1,6,7,8,9,11a,12,13,14,14a-decahydro-4H-cyclopenta[f][1]oxacyclotridecin-1-yl (4-((4-isothiocyanatobenzoyl)oxy)phenyl) succinate] | 27.7 ± 0.47 µM | 32.1 ± 1.03 µM | 21.3 ± 0.33 µM | 16.18 ± 0.06 µM | 13.1 ± 0.45 µM | 25.1 ± 0.82 µM | 1.91 |  |  |  |  |  |  |
| C[C@H]1CCC/C=C/[C@@H]2C[C@H](OC(=O)/C=C\C(=O)OCC#CCOC(=O)c3ccc(N=C=S)cc3)C[C@H]2[C@H](OC(=O)/C=C\C(=O)OCC#CCOC(=O)c2ccc(N=C=S)cc2)/C=C/C(=O)O1 [Compound 8i, Bis(4-((4-isothiocyanatobenzoyl)oxy)but-2-yn-1-yl) O,O’-((1R,2E,6S,10E,11aS,13S,14aR)-6-methyl-4-oxo-1,6,7,8,9,11a,12,13,14,14a-decahydro-4H-cyclopenta[f][1]oxacyclotridecine-1,13-diyl) dimaleate] | > 40 µM | > 40 µM | > 40 µM | > 40 µM | > 40 µM | > 80 µM |  |  |  |  |  |  |  |
| C[C@H]1CCC/C=C/[C@@H]2C[C@H](OC(=O)CCC(=O)OCCOC(=O)c3ccc(N=C=S)cc3)C[C@H]2[C@H](OC(=O)CCC(=O)OCCOC(=O)c2ccc(N=C=S)cc2)/C=C/C(=O)O1 [Compound 8a, Bis(2-((4-isothiocyanatobenzoyl)oxy)ethyl) O,O’-((1R,2E,6S,10E,11aS,13S,14aR)-6-methyl-4-oxo-1,6,7,8,9,11a,12,13,14,14a-decahydro-4H-cyclopenta[f][1]oxacyclotridecine-1,13-diyl) disuccinate] | > 40 µM | > 40 µM | > 40 µM | > 40 µM | 12 ± 1.47 µM | > 80 µM | >6.68 |  |  |  |  |  |  |
| O=C(O)c1ccc(N=C=S)cc1 [Compound 2, 4-Carboxyphenyl isothiocyanate, reference compound] |  |  |  |  |  |  | 1.48 | > 100 µM | 82.1 ± 2.7 µM | 43 ± 3.34 µM | 79.2 ± 2.52 µM | 45.7 ± 1.74 µM | 67.8 ± 2 µM |
| C[C@H]1CCC/C=C/[C@@H]2C[C@H](O)C[C@H]2[C@H](OC(=O)/C=C\C(=O)OCCOC(=O)c2ccc(N=C=S)cc2)/C=C/C(=O)O1 [Compound 9g, (1R,2E,6S,10E,11aS,13S,14aR)-13-Hydroxy-6-methyl-4-oxo-1,6,7,8,9,11a,12,13,14,14a-decahydro-4H-cyclopenta[f][1]oxacyclotridecin-1-yl (2-((4-isothiocyanatobenzoyl)oxy)ethyl) maleate] | 12.8 ± 0.15 µM | 7.51 ± 0.07 µM | 11.9 ± 0.54 µM | 10.4 ± 0.59 µM | 3.63 ± 0.23 µM | 20.9 ± 0.49 µM | 5.75 |  |  |  |  |  |  |
